One block for each compound: values may come before it. Numbered stars: 1 amine (or outer) side, 2 acyl side, 3 side chain; on linkers, the order of the positions; unused ones are H or OH. Bridge positions count the residues as written; N and C are the ends. Square brackets hold non-standard residues; d marks the D form. Peptide text beside a SMILES is read from it. * marks the point of attachment. Pro(4S-NHCO(5-Cl-2-thienyl)) = O=C(N[C@@H]1CN[C@H](C(=O)O)C1)c1ccc(Cl)s1; Benzoyl(3,5-diOMe) = COc1cc(OC)cc(C(=O)*)c1; Nicotinoyl(6-OMe) = COc1ccc(C(=O)*)cn1; X11 = O=C(c1cccc(S(F)(F)(F)(F)F)c1)*; 2Thenoyl(5-Cl) = O=C(c1ccc(Cl)s1)*; Pyrazinecarbonyl = O=C(c1cnccn1)*; X5 = O=C(c1cc2cc(Cl)ccc2[nH]1)*; Cysteamide = C(CS[*:3])N[*:1]; X1 = O=C(/C=C/c1ccccc1)*; Dap = NC[C@H](N)C(=O)O; Mpa = O=C(O)CCS
Biological target: MDM2 (Homo sapiens, UniProt Q00987)
Sequence (Q00987 whole entry): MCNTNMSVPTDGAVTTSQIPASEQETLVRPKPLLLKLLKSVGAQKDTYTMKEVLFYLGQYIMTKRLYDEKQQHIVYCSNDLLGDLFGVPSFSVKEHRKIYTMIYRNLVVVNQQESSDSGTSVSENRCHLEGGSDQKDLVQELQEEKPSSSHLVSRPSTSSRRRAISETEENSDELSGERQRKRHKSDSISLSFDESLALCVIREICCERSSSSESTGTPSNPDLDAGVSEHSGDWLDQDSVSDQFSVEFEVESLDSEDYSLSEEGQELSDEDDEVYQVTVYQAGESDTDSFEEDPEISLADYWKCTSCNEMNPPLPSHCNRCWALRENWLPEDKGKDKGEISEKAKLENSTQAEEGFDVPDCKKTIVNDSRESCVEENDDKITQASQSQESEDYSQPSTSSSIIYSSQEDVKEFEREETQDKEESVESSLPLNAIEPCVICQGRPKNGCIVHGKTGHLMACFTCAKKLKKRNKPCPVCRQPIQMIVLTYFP
Experiment: MDM2 binding screen: displacement of fluorescent p53 peptide probe FP53 (fluorescence polarization)
Details: for fraction fluorescent probe displaced, Screen: initial screen; for fraction fluorescent probe displaced, Screen / fraction fluorescent probe displaced, Replicate: crude macrocycle reactions
Summary of the method: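 Single-point screen: one fluorescence anisotropy reading at 25 °C (485 nm excitation, 535 nm emission) per macrocycle. Crude macrocycle reactions, final 10 µM, were scored for displacing the fluorescent p53 peptide from human MDM2.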

[1] = 10 µM macrocycle concentration, crude acylated macrocycle (scaffold Mpa-AA1-AA2-AA3 x carboxylic acid), p53-based fluorescent peptide, human MDM2

fraction fluorescent probe displaced, Screen (Acid 25): 0.15
fraction fluorescent probe displaced, Replicate (Acid 25, replicate): 0.07
SMILES: O=C1CCSSCCNC(=O)C(Cc2c[nH]c3ccccc23)NC(=O)C2CN(C(=O)c3ccc(Cl)cc3)CCN2C(=O)CCN1 (mixture of isomers) [X B2 D7 W Acid 25]

fraction fluorescent probe displaced, Screen (Acid 91): 0.08
fraction fluorescent probe displaced, Replicate (Acid 91, replicate): 0.14
SMILES: O=C(C=Cc1ccccc1)NCC1NC(=O)CCSSCCNC(=O)C(Cc2c[nH]c3ccccc23)NC(=O)c2cccc(c2)CNC1=O (stereo not shown) [X D3 B5 W Acid 91]

fraction fluorescent probe displaced, Screen (Acid 91): 0.11
fraction fluorescent probe displaced, Replicate (Acid 91, replicate): 0.07
SMILES: O=C1CCNC(=O)C2CN(C(=O)C=Cc3ccccc3)CCN2C(=O)CCSSCCNC(=O)C(Cc2c[nH]c3ccccc23)N1 (stereo not shown) [X D7 B2 W Acid 91]

fraction fluorescent probe displaced, Screen (Acid 14): 0.26
fraction fluorescent probe displaced, Replicate (Acid 14, replicate): 0.22
SMILES: O=C1CCSSCCNC(=O)c2cccc(c2)CNC(=O)[C@H](Cc2c[nH]c3ccccc23)NC(=O)[C@H](CNC(=O)c2ccc(Cl)s2)N1 [X D3 W B5 Acid 14]

fraction fluorescent probe displaced, Screen (Acid 91): -0.05
fraction fluorescent probe displaced, Replicate (Acid 91, replicate): -0.00827
SMILES: O=C1CCSSCCNC(=O)c2cccc(c2)CNC(=O)C(Cc2ccccc2)NC(=O)C2(CCN(C(=O)C=Cc3ccccc3)CC2)N1 (stereo not shown) [X D6 F B5 Acid 91]

fraction fluorescent probe displaced, Screen (Acid 91): -0.05
fraction fluorescent probe displaced, Replicate (Acid 91, replicate): 0.0168
SMILES: O=C(/C=C/c1ccccc1)N[C@H]1C[C@H]2C(=O)N[C@@H](Cc3c[nH]c4ccccc34)C(=O)NCc3cccc(c3)C(=O)NCCSSCCC(=O)N2C1 [X D5 W B5 Acid 91]

fraction fluorescent probe displaced, Screen (Acid 91): 0.08
fraction fluorescent probe displaced, Replicate (Acid 91, replicate): 0.0168
SMILES: O=C(/C=C/c1ccccc1)NC[C@@H]1NC(=O)[C@@H]2CCCN2C(=O)CCSSCCNC(=O)[C@H](Cc2ccccc2)NC1=O [X B1 D3 F Acid 91] ([Mpa]P[Dap](X1)F-Cysteamide; disulfide 1-C)

fraction fluorescent probe displaced, Screen (Acid 91): 0.08
fraction fluorescent probe displaced, Replicate (Acid 91, replicate): 0.04
SMILES: O=C(/C=C/c1ccccc1)NC[C@@H]1NC(=O)[C@H](Cc2c[nH]c3ccccc23)NC(=O)[C@@H]2CCCN2C(=O)CCSSCCNC1=O [X B1 W D3 Acid 91] ([Mpa]PW[Dap](X1)-Cysteamide; disulfide 1-C)

fraction fluorescent probe displaced, Screen (Acid 91): -0.05
fraction fluorescent probe displaced, Replicate (Acid 91, replicate): 0.04
SMILES: O=C(/C=C/c1ccccc1)NC[C@@H]1NC(=O)c2cccc(c2)CNC(=O)[C@H](Cc2ccccc2)NC(=O)CCSSCCNC1=O [X F B5 D3 Acid 91]

fraction fluorescent probe displaced, Screen (Acid 91): 0.14
fraction fluorescent probe displaced, Replicate (Acid 91, replicate): 0.07
SMILES: O=C(/C=C/c1ccccc1)NC[C@@H]1NC(=O)[C@H](Cc2c[nH]c3ccccc23)NC(=O)CCNC(=O)CCSSCCNC1=O [X B2 W D3 Acid 91]

fraction fluorescent probe displaced, Screen (Acid 25): 0.0569
fraction fluorescent probe displaced, Replicate (Acid 25, replicate): 0.07
SMILES: O=C1CCSSCCNC(=O)c2cccc(c2)CNC(=O)[C@H](CNC(=O)c2ccc(Cl)cc2)NC(=O)[C@H](Cc2ccccc2)N1 [X F D3 B5 Acid 25]

fraction fluorescent probe displaced, Screen (Acid 91): 0.19
fraction fluorescent probe displaced, Replicate (Acid 91, replicate): 0.12
SMILES: O=C(/C=C/c1ccccc1)NC[C@@H]1NC(=O)[C@@H]2CCCN2C(=O)[C@H](Cc2c[nH]c3ccccc23)NC(=O)CCSSCCNC1=O [X W B1 D3 Acid 91] ([Mpa]WP[Dap](X1)-Cysteamide; disulfide 1-C)

Further lines, the compound ahead of its results:

SMILES: O=C1CCSSCCNC(=O)[C@H](CNC(=O)c2ccc(Cl)cc2)NC(=O)[C@H]2CCCN(C2)C(=O)[C@H](Cc2c[nH]c3ccccc23)N1 [X W B4 D3 Acid 25]
fraction fluorescent probe displaced, Screen (Acid 25): 0.25
fraction fluorescent probe displaced, Replicate (Acid 25, replicate): 0.30

SMILES: O=C1CCSSCCNC(=O)C2CN(C(=O)c3ccc(Cl)s3)CCN2C(=O)CCNC(=O)C(Cc2c[nH]c3ccccc23)N1 (mixture of isomers) [X W B2 D7 Acid 14]
fraction fluorescent probe displaced, Screen (Acid 14): 0.08
fraction fluorescent probe displaced, Replicate (Acid 14, replicate): 0.17

SMILES: O=C1CCSSCCNC(=O)[C@@H]2CCCN2C(=O)[C@H](CNC(=O)c2ccc(Cl)s2)NC(=O)[C@H](Cc2c[nH]c3ccccc23)N1 [X W D3 B1 Acid 14] ([Mpa]W[Dap](2Thenoyl(5-Cl))P-Cysteamide; disulfide 1-C)
fraction fluorescent probe displaced, Screen (Acid 14): 0.28
fraction fluorescent probe displaced, Replicate (Acid 14, replicate): 0.28

SMILES: O=C1CCSSCCNC(=O)C2CN(C(=O)c3ccc(Cl)s3)CCN2C(=O)CCNC(=O)C(Cc2ccccc2)N1 (stereo not shown) [X F B2 D7 Acid 14]
fraction fluorescent probe displaced, Screen (Acid 14): 0.17
fraction fluorescent probe displaced, Replicate (Acid 14, replicate): 0.10

SMILES: O=C(/C=C/c1ccccc1)NC[C@@H]1NC(=O)[C@@H]2CCCN2C(=O)[C@H](Cc2ccccc2)NC(=O)CCSSCCNC1=O [X F B1 D3 Acid 91] ([Mpa]FP[Dap](X1)-Cysteamide; disulfide 1-C)
fraction fluorescent probe displaced, Screen (Acid 91): 0.08
fraction fluorescent probe displaced, Replicate (Acid 91, replicate): 0.04

SMILES: O=C1NC2(CCN(C(=O)/C=C/c3ccccc3)CC2)C(=O)N[C@@H](Cc2ccccc2)C(=O)NCCSSCCC(=O)N2CCC[C@H]1C2 [X B4 D6 F + Acid 91]
fraction fluorescent probe displaced (crude reaction of macrocycle scaffold with Acid 91, (initial screen)): 0.12
fraction fluorescent probe displaced (crude reaction of macrocycle scaffold with Acid 91, replicate): 0.12

SMILES: O=C1CCSSCCNC(=O)[C@H](CNC(=O)c2ccc(Cl)cc2)NC(=O)[C@H](Cc2c[nH]c3ccccc23)NC(=O)CCN1 [X B2 W D3 Acid 25]
fraction fluorescent probe displaced, Screen (Acid 25): 0.19
fraction fluorescent probe displaced, Replicate (Acid 25, replicate): 0.22

SMILES: O=C1NCCSSCCC(=O)N2CCCC2C(=O)N2CCN(C(=O)c3ccc(Cl)cc3)CC2C(=O)NC1Cc1c[nH]c2ccccc12 (stereo not shown) [X B1 D7 W Acid 25]
fraction fluorescent probe displaced, Screen (Acid 25): 0.09
fraction fluorescent probe displaced, Replicate (Acid 25, replicate): 0.10

SMILES: O=C(NC[C@@H]1NC(=O)[C@@H]2CCCN2C(=O)CCSSCCNC(=O)[C@H](Cc2ccccc2)NC1=O)c1cc2cc(Cl)ccc2[nH]1 [X-B1-D3-F + A39] ([Mpa]P[Dap](X5)F-Cysteamide; disulfide 1-C)
fraction fluorescent probe displaced [1]: 0.08617

SMILES: O=C(NC[C@@H]1NC(=O)[C@@H]2CCCN2C(=O)CCSSCCNC(=O)[C@H](Cc2c[nH]c3ccccc23)NC1=O)c1cnccn1 [X-B1-D3-W + A2] ([Mpa]P[Dap](Pyrazinecarbonyl)W-Cysteamide; disulfide 1-C)
fraction fluorescent probe displaced [1]: 0.03807

SMILES: O=C1NC(Cc2ccccc2)C(=O)N2CCN(C(=O)c3ccc(Cl)s3)CC2C(=O)NCCSSCCC(=O)N2CCCC12 (stereo not shown) [X B1 F D7 Acid 14]
fraction fluorescent probe displaced, Screen (Acid 14): 0.053
fraction fluorescent probe displaced, Replicate (Acid 14, replicate): 0.12

SMILES: O=C1CCSSCCNC(=O)[C@H](Cc2ccccc2)NC(=O)CCNC(=O)[C@H](CNC(=O)c2ccc(Cl)s2)N1 [X D3 B2 F Acid 14]
fraction fluorescent probe displaced, Screen (Acid 14): 0.17
fraction fluorescent probe displaced, Replicate (Acid 14, replicate): 0.10

SMILES: O=C1NC(Cc2ccccc2)C(=O)N2CCCC2C(=O)NCCSSCCC(=O)N2CCN(C(=O)c3ccc(Cl)cc3)CC12 (stereo not shown) [X D7 F B1 Acid 25]
fraction fluorescent probe displaced, Screen (Acid 25): 0.09
fraction fluorescent probe displaced, Replicate (Acid 25, replicate): 0.07

SMILES: O=C(NC1CC2C(=O)NC(Cc3ccccc3)C(=O)N3CCCC(C3)C(=O)NCCSSCCC(=O)N2C1)c1ccc(Cl)cc1 (stereo not shown) [X D5 F B4 Acid 25]
fraction fluorescent probe displaced, Screen (Acid 25): 0.0244
fraction fluorescent probe displaced, Replicate (Acid 25, replicate): 0.0211

SMILES: O=C1CCSSCCNC(=O)[C@H]2CCCN(C2)C(=O)[C@H](CNC(=O)c2ccc(Cl)cc2)NC(=O)[C@H](Cc2ccccc2)N1 [X F D3 B4 Acid 25]
fraction fluorescent probe displaced, Screen (Acid 25): 0.12
fraction fluorescent probe displaced, Replicate (Acid 25, replicate): 0.10

SMILES: O=C(N[C@H]1C[C@H]2C(=O)NCCSSCCC(=O)N3CCC[C@@H](C3)C(=O)N[C@@H](Cc3c[nH]c4ccccc34)C(=O)N2C1)c1ccc(Cl)s1 [X B4 W D5 Acid 14]
fraction fluorescent probe displaced, Screen (Acid 14): 0.08
fraction fluorescent probe displaced, Replicate (Acid 14, replicate): -0.03

SMILES: COc1cc(OC)cc(C(=O)NC[C@@H]2NC(=O)[C@@H]3CCCN3C(=O)CCSSCCNC(=O)[C@H](Cc3c[nH]c4ccccc34)NC2=O)c1 [X-B1-D3-W + A4] ([Mpa]P[Dap](Benzoyl(3,5-diOMe))W-Cysteamide; disulfide 1-C)
fraction fluorescent probe displaced [1]: 0.03512

SMILES: O=C1CCSSCCNC(=O)[C@H](Cc2ccccc2)NC(=O)[C@H]2CCCN(C2)C(=O)C2(CCN(C(=O)c3ccc(Cl)cc3)CC2)N1 [X D6 B4 F + Acid 25]
fraction fluorescent probe displaced (crude reaction of macrocycle scaffold with Acid 25, (initial screen)): 0.09
fraction fluorescent probe displaced (crude reaction of macrocycle scaffold with Acid 25, replicate): 0.15

SMILES: COc1ccc(C(=O)NC[C@@H]2NC(=O)[C@@H]3CCCN3C(=O)CCSSCCNC(=O)[C@H](Cc3c[nH]c4ccccc34)NC2=O)cn1 [X-B1-D3-W + A10] ([Mpa]P[Dap](Nicotinoyl(6-OMe))W-Cysteamide; disulfide 1-C)
fraction fluorescent probe displaced [1]: 0.2362

SMILES: O=C1CCSSCCNC(=O)[C@@H]2CCCN2C(=O)[C@@H]2C[C@H](NC(=O)c3ccc(Cl)s3)CN2C(=O)[C@H](Cc2c[nH]c3ccccc23)N1 [X W D5 B1 Acid 14] ([Mpa]W[Pro(4S-NHCO(5-Cl-2-thienyl))]P-Cysteamide; disulfide 1-C)
fraction fluorescent probe displaced, Screen (Acid 14): 0.28
fraction fluorescent probe displaced, Replicate (Acid 14, replicate): 0.22

SMILES: O=C(NC[C@@H]1NC(=O)[C@@H]2CCCN2C(=O)CCSSCCNC(=O)[C@H](Cc2c[nH]c3ccccc23)NC1=O)c1cccc(S(F)(F)(F)(F)F)c1 [X-B1-D3-W + A19] ([Mpa]P[Dap](X11)W-Cysteamide; disulfide 1-C)
fraction fluorescent probe displaced [1]: 0.1429
